Experimental data taken from ChEMBL document CHEMBL4385613, “Discovery of Conformational Control Inhibitors Switching off the Activated c-KIT and Targeting a Broad Range of Clinically Relevant c-KIT Mutants” (J Med Chem, 2019).
pIC50: −log10 of the molar value. Calls of active or inactive are those of the source. No cut-off for these calls is given here.

Columns and labels:
GISTT1 [1] = assay: Antiproliferative activity against human GISTT1 cells harboring heterozygous V560-Y578 deletion mutant assessed as reduction in cell viability by MTS assay; assay type: functional
GISTT1 [2] = assay: Antiproliferative activity against human GISTT1 cells harboring heterozygous V560-Y578 del mutation assessed as reduction in cell viability by methylene blue staining based assay; assay type: functional
[3] = molecular target: Mast/stem cell growth factor receptor Kit (Homo sapiens, UniProt P10721); assay: Inhibition of recombinant human N-terminal 6x-His-tagged c-KIT (547 to 935 residues)/(694 to 753 residues deletion) expressed in baculovirus infected Sf9 insect cells assessed as decrease in poly (Glu,Tyr) 4:1 phosphorylation measured after 150 mins in presence of ATP by ADP-glo based luminescence assay
GIST882 [4] = assay: Antiproliferative activity against human GIST882 cells harboring c-KIT exon 13 homozygous primary K642E mutant assessed as reduction in cell viability by MTS assay; assay type: functional
GIST48 [5] = assay: Antiproliferative activity against human GIST48 cells harboring c-KIT exon 11 homozygous primary missense V560D mutant and exon 17 heterozygous secondary D820A mutant assessed as reduction in cell viability by methylene blue staining based assay; assay type: functional
GIST430 [6] = assay: (§1) Antitumor activity against human GIST430 cells harboring c-KIT exon 11 primary in-frame V560-L576 deletion mutant and exon 13 heterozygous secondary missense V654A mutant xenografted in NOD-SCID mouse assessed as tumor growth inhibition at 40 mg/kg, po administered for 2 weeks with 2 days rest after day 5 and measured thrice per week up to 21 days during compound dosing; assay type: functional, organism-based
GIST882 [7] = assay: Antiproliferative activity against human GIST882 cells harboring c-KIT exon 13 homozygous primary K642E mutant assessed as reduction in cell viability by methylene blue staining based assay; assay type: functional
GIST430 [8] = assay: Antiproliferative activity against human GIST430 cells harboring c-KIT exon 11 primary in-frame V560-L576 deletion mutant and exon 13 heterozygous secondary missense V654A mutant assessed as reduction in cell viability by MTS assay; assay type: functional
GIST430 [9] = assay: Antiproliferative activity against human GIST430 cells harboring c-KIT exon 11 primary in-frame V560-L576 deletion mutant and exon 13 heterozygous secondary missense V654A mutant assessed as reduction in cell viability by methylene blue staining based assay; assay type: functional
GIST430 [10] = assay: as §1, with “regression” for “growth inhibition”; assay type: functional, organism-based
GIST48 [11] = assay: Antiproliferative activity against human GIST48 cells harboring c-KIT exon 11 homozygous primary missense V560D mutant and exon 17 heterozygous secondary D820A mutant assessed as reduction in cell viability by MTS assay; assay type: functional

| SMILES | pIC50 [3] | GI50 (GISTT1 [1]) | GI50 (GISTT1 [2]) | also measured |
| --- | --- | --- | --- | --- |
| CCN1CCN(c2cc(Nc3ncc(-c4ccc(NS(=O)(=O)c5ccccc5)cc4)s3)nc(C)n2)CC1 | 7.27 | 42 nM | 42 nM | – |
| CCc1cc(NC(=O)Nc2ccc(-c3csc(Nc4cc(N5CCN(CC)CC5)nc(C)n4)n3)cc2)no1 | 6.02 | > 1000 nM | > 1000 nM | – |
| CCN(CC)CCNC(=O)c1c(C)[nH]c(/C=C2\C(=O)Nc3ccc(F)cc32)c1C [SUNITINIB] | – | 38 nM | 38 nM | GI50 (GIST882 [4]): 64 nM; GI50 (GIST48 [5]): 2000 nM; TGI (GIST430 [6]): Active; GI50 (GIST882 [7]): 64 nM; GI50 (GIST430 [8]): 47 nM; GI50 (GIST430 [9]): 47 nM; Activity (GIST430 [10]): inactive; GI50 (GIST48 [11]): 2000 nM |
| Cc1nc(Nc2ncc(-c3ccc(NC(=O)Nc4ccccc4)cc3)s2)cc(N2CCN(C)CC2)n1 | 7.70 | 5.4 nM | 5.4 nM | – |
| CCc1cc(NC(=O)NCCCc2cnc(Nc3cc(N4CCN(CC)CC4)nc(C)n3)s2)no1 | 7.30 | 10 nM | 10 nM | – |
| CCc1cc(NC(=O)N2CC=C(c3cnc(Nc4cc(N5CCN(CC)CC5)nc(C)n4)s3)CC2)no1 | 7.09 | 4.9 nM | 4.9 nM | – |

Further lines, with some results ahead:

| pIC50 [3] | SMILES | GI50 (GISTT1 [1]) | GI50 (GISTT1 [2]) | also measured |
| --- | --- | --- | --- | --- |
| 7.82 | CCc1cc(NC(=O)Nc2ccc(-c3cnc(Nc4cc(N5CCC(N)C5)nc(C)n4)s3)cc2)no1 (configuration not stated) | 6.4 nM | 6.4 nM | – |
| 7.01 | CCc1cc(NC(=O)Nc2ccc(-c3cnc(Nc4cc(N5CCN(CC)CC5)nc(C)n4)s3)cc2)no1 | 3.2 nM | 3.2 nM | – |
| 7.15 | CCc1cc(NC(=O)Nc2ccc(-c3cnc(Nc4cc(N5CCN(CCO)CC5)ncn4)s3)cc2)no1 | 3.3 nM | 3.3 nM | – |
| 7.42 | CCc1cc(NC(=O)NCC#Cc2cnc(Nc3cc(N4CCN(CC)CC4)ncn3)s2)no1 | 9.9 nM | 9.9 nM | – |
| 6.89 | CCN1CCN(c2cc(Nc3ncc(-c4ccc(NC(C)=O)cc4)s3)ncn2)CC1 | 25 nM | 25 nM | – |
| 7.37 | CCc1cc(NC(=O)Nc2ccc(-c3cnc(Nc4cc(N5CCN(CC)CC5)ncn4)s3)cn2)no1 | 1 nM | 1 nM | – |
| 6.91 | CCc1cc(NC(=O)Nc2ccc(-c3sc(Nc4cc(N5CCN(CC)CC5)ncn4)nc3C)cc2)no1 | 3.3 nM | 3.3 nM | – |
| 7.01 | CCN1CCN(c2cc(Nc3ncc(-c4ccc(NC(N)=O)cc4)s3)ncn2)CC1 | 86 nM | 86 nM | – |
| 7.07 | CCc1cc(NC(=O)Nc2ccc(-c3cnc(Nc4nc(C)nc(N5CCN(CC)CC5)n4)s3)cc2)no1 | 13 nM | 13 nM | – |
